Values quoted from earlier work as cited in patent US20220202849A1, “PERK AS A TARGET FOR VIRUS THERAPEUTICS” (priority 2020, published 2022).
pIC50: −log10 of the molar value.

Tested on: PERK
Conditions: as quoted with vendor catalog entry; read-out: PERK inhibitor IC50

Structure (SMILES)	pIC50
Cc1cccc(CC(=O)N2CCc3c2ccc(-c2cn(C)c4ncnc(N)c24)c3F)n1 [GSK2656157]	~9.05
O=C(COc1ccc(Cl)cc1)N[C@H]1CC[C@@H](NC(=O)COc2ccc(Cl)cc2)CC1 [ISRIB (trans-isomer), ISRIB]	~8.30
